Assay results as given in patent publication US20060069132A1, “Azolecarboxamide herbicides” (priority 2004, published 2006).

Legend:
barnyardgrass = test: Test A pre-/postemergence herbicide test; assay type: in vivo, Echinochloa crus-galli
How it was run: (§1)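 Seeds sown in sandy loam received a preemergence directed soil spray of compound in non-phytotoxic solvent with surfactant; postemergence plants (2–10 cm, one- to two-leaf stage) were sprayed to runoff at the same time. After ~10 days in greenhouse, injury was rated visually versus untreated controls (0 = no effect, 100 = complete control).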

redroot pigweed = test: Test A pre-/postemergence herbicide test; assay type: in vivo, Amaranthus retroflexus
How it was run: as §1

lambsquarters = test: Test B pre-/postemergence herbicide test; assay type: in vivo, Chenopodium album; conditions: for Lambsquarters plant response rating: postemergence, visual rating, scale 0 (no effect) to 100 (complete control)
How it was run: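 Seeds were planted and treated preemergence with compounds formulated in a non-phytotoxic solvent mixture containing surfactant, while plants at the 1- to 4-leaf stage (2 to 18 cm) received postemergence sprays. Flooded paddy plants were grown to the 2-leaf stage. After 13 to 15 days in a greenhouse, injury was visually rated 0–100 against untreated controls.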

morningglory = test: Test B pre-/postemergence herbicide test; assay type: in vivo, Ipomoea coccinea; conditions: for Morningglory plant response rating: postemergence, visual rating, scale 0 (no effect) to 100 (complete control)
How it was run: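 Formulation: non-phytotoxic solvent mix with surfactant. Timing: preemergence on seed and postemergence on 2–18 cm plants, applied concurrently. Readout after 13–15 d greenhouse: visual 0–100 control rating against controls.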

cocklebur = test: Test C pre-/postemergence herbicide test; assay type: in vivo, Xanthium strumarium; conditions: for Plant response rating, Cocklebur: preemergence; for Cocklebur plant response rating: Preemergence, 500 g ai/ha, scale 0 to 100, 0 no effect, 100 complete control
How it was run: (§2)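 Seeds were planted and sprayed preemergence with test chemicals in a non-phytotoxic solvent mixture containing surfactant; postemergence treatments went onto plants 2 to 18 cm tall (1- to 4-leaf stage). After 12 to 14 days in a greenhouse, injury was rated visually against untreated controls on a 0–100 scale.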

kochia = test: Test C pre-/postemergence herbicide test; assay type: in vivo, Kochia scoparia; conditions: for Plant response rating, Kochia: preemergence; for Kochia plant response rating: Preemergence, 500 g ai/ha, scale 0 to 100, 0 no effect, 100 complete control
How it was run: as §2

eastern black nightshade = test: Test C pre-/postemergence herbicide test; assay type: in vivo, Solanum ptycanthum; conditions: for Plant response rating, Nightshade: preemergence; for Nightshade plant response rating: Preemergence, 500 g ai/ha, scale 0 to 100, 0 no effect, 100 complete control
How it was run: as §2

yellow nutsedge = test: Test C pre-/postemergence herbicide test; assay type: in vivo, Cyperus esculentus; conditions: for Plant response rating, Nutsedge, Yellow: preemergence; for Nutsedge, Yellow plant response rating: Preemergence, 500 g ai/ha, scale 0 to 100, 0 no effect, 100 complete control
How it was run: as §2

soybean = test: Test C pre-/postemergence herbicide test; assay type: in vivo, Glycine max; conditions: for Plant response rating, Soybean: preemergence; for Soybean plant response rating: Preemergence, 500 g ai/ha, scale 0 to 100, 0 no effect, 100 complete control
How it was run: as §2

[1] = Postemergence, 500 g ai/ha, 0 to 100 scale, 0 no effect, 100 complete control
[2] = Postemergence, 2000 g ai/ha, 0 to 100 scale, 0 no effect, 100 complete control
[3] = Preemergence, 2000 g ai/ha, visual rating, 0 to 100 scale (0 no effect, 100 complete control)
[4] = preemergence, 500 g ai/ha, visual injury, 0 to 100 scale (0 no effect, 100 complete control)
[5] = 500 g ai/ha, visual rating 0-100, 0 no effect, 100 complete control, preemergence
[6] = preemergence, 125 g ai/ha, 0 to 100 scale, 0 is no effect, 100 is complete control
[7] = 125 g ai/ha, scale 0 (no effect) to 100 (complete control), visual, 12 to 14 days
[8] = 125 g ai/ha, 0 = no effect, 100 = complete control, preemergence

SMILES	Barnyardgrass plant response rating (barnyardgrass; [1])	Plant response rating, Barnyardgrass (barnyardgrass; [2])	Barnyardgrass plant response rating (barnyardgrass; [3])	Pigweed plant response rating (redroot pigweed; [1])	Plant response rating, Pigweed (redroot pigweed; [2])	Pigweed plant response rating (redroot pigweed; [3])	Pigweed plant response rating (redroot pigweed; [4])	Plant response rating, Lambsquarters (lambsquarters; [5])	Lambsquarters plant response rating (lambsquarters; 125 g ai/ha)	Lambsquarters plant response rating (lambsquarters; 500 g ai/ha)	Plant response rating, Morningglory (morningglory; [5])	Morningglory plant response rating (morningglory; 125 g ai/ha)	Morningglory plant response rating (morningglory; 500 g ai/ha)	Plant response rating, Cocklebur (cocklebur; 62 g ai/ha, scale 0 to 100)	Plant response rating, Cocklebur (cocklebur; [7])	Cocklebur plant response rating (cocklebur)	Plant response rating, Kochia (kochia; 62 g ai/ha, scale 0 to 100)	Plant response rating, Kochia (kochia; [7])	Kochia plant response rating (kochia)	Plant response rating, Nightshade (eastern black nightshade; 62 g ai/ha, scale 0 to 100)	other results
CCNC(=O)c1cc(C)nc(NC(=O)c2cc(C(C)(C)C)nn2CC)c1 [Compound 149]	45	65	90	65	90	95	90	100	20	60	40	20	40	0	0	0	0	10	90	80	Barnyardgrass plant response rating (barnyardgrass; Preemergence, 500 g ai/ha, visual rating, 0 to 100 scale (0 no effect, 100 complete control)): 70; Plant response rating, Lambsquarters (lambsquarters; [6]): 60; Plant response rating, Morningglory (morningglory; [6]): 20; Plant response rating, Cocklebur (cocklebur; 250 g ai/ha, scale 0 to 100 (0 no effect, 100 complete control), visual, 12 to 14 days): 0; Plant response rating, Nightshade (eastern black nightshade; [7]): 80; Nightshade plant response rating (eastern black nightshade): 95; Plant response rating, Nutsedge, Yellow (yellow nutsedge; 62 g ai/ha, scale 0 to 100): 0; Plant response rating, Nutsedge, Yellow (yellow nutsedge; [7]): 0; Nutsedge, Yellow plant response rating (yellow nutsedge): 0; Plant response rating, Soybean (soybean; 62 g ai/ha, scale 0 to 100): 0; Plant response rating, Soybean (soybean; [7]): 0; Soybean plant response rating (soybean): 0
C=CCNC(=O)c1cccc(NC(=O)c2sc(C(C)(C)C)nc2C)c1 [Compound 202]	45	80	80	50	90	100	100	100	50	50	30	20	40	0	0	20	60	85	95	20	Barnyardgrass plant response rating (barnyardgrass; [4]): 45; Lambsquarters plant response rating (0 to 100 scale) (lambsquarters; [8]): 30; Morningglory plant response rating (0 to 100 scale) (morningglory; [8]): 0; Plant response rating, Cocklebur (cocklebur; 250 g ai/ha, scale 0-100): 10; Plant response rating, Kochia (kochia; 250 g ai/ha, scale 0-100): 85; Plant response rating, Nightshade (eastern black nightshade; [7]): 95; Plant response rating, Nightshade (eastern black nightshade; 250 g ai/ha, scale 0-100): 100; Nightshade plant response rating (eastern black nightshade): 100; Plant response rating, Nutsedge, Yellow (yellow nutsedge; 62 g ai/ha, scale 0 to 100): 0; Plant response rating, Nutsedge, Yellow (yellow nutsedge; [7]): 0; Plant response rating, Nutsedge, Yellow (yellow nutsedge; 250 g ai/ha, scale 0-100): 0; Nutsedge, Yellow plant response rating (yellow nutsedge): 0; Plant response rating, Soybean (soybean; 62 g ai/ha, scale 0 to 100): 0; Plant response rating, Soybean (soybean; [7]): 0; Plant response rating, Soybean (soybean; 250 g ai/ha, scale 0-100): 0; Soybean plant response rating (soybean): 30
